Measured values reported in patent publication US9029391B2 (priority 2011, dated 2015).

system: HIV; assay: MT4 Assay (anti-HIV activity); type: cell-based; conditions: Human immunodeficiency virus 1, 96 h, read-out: HIV MT4 Assay IC50, HTLV-1 transformed cell line MT-4, cell titer glo, 10 point dose response curve
Method: Antiviral HIV activity and cytotoxicity values for compounds of the invention from Table 1 were measured in parallel in the HTLV-1 transformed cell line MT-4 based on the method previously described (Hazen et al., 2007, In vitro antiviral activity of the novel, tyrosyl-based human immunodeficiency virus (HIV) type 1 protease inhibitor brecanavir (GW640385) in combination with other antiretrovirals and against a panel of protease inhibitor-resistant HIV (Hazen et al., “In vitro antiviral activity of the novel, tyrosyl-based human immunodeficiency virus (HIV) type 1 protease inhibitor brecanavir (GW640385) in combination with other antiretrovirals and against a panel of protease inhibitor-resistant HIV”, Antimicrob. Agents Chemother. 2007, 51: 3147-3154; and Pauwels et al., “Sensitive and rapid assay on MT-4 cells for the detection of antiviral compounds against the AIDS virus”, J. of Virological Methods 1987, 16: 171-185).
Luciferase activity was measured 96 hours later by adding a cell titer glo (Promega, Madison, Wis.). Percent inhibition of cell protection data was plotted relative to no compound control. Under the same condition, cytotoxicity of the compounds was determined using cell titer glo (Promega, Madison, Wis.). IC50s were determined from a 10 point dose response curve using 3-4-fold serial dilution for each compound, which spans a concentration range >1000 fold.

**Q.** Which IC50 does the source give for Cc1c(-c2c([C@H](OC(C)(C)C)C(=O)O)n(C)c(=O)c3cc(-c4cnn(C)c4)ccc23)cc(F)c2c1CCCO2 (atropisomer, axis not shown; (M)) [Example 200, (2S)(M)-[(1,1-dimethylethyl)oxy][4-(8-fluoro-5-methyl-3,4-dihydro-2H-chromen-6-yl)-2-methyl-7-(1-methyl-1H-pyrazol-4-yl)-1-oxo-1,2-dihydro-3-isoquinolinyl]ethanoic acid] here?
**A.** 110 nM

**Q.** With Cc1c(-c2c([C@H](OC(C)(C)C)C(=O)O)n(C)c(=O)c3cc(-c4cnn(CCC(C)C)c4)ccc23)cc(F)c2c1CCCO2 (atropisomer, axis not shown; (M)) [Example 201, (2S)(M)-[(1,1-dimethylethyl)oxy]{4-(8-fluoro-5-methyl-3,4-dihydro-2H-chromen-6-yl)-2-methyl-7-[1-(3-methylbutyl)-1H-pyrazol-4-yl]-1-oxo-1,2-dihydro-3-isoquinolinyl}ethanoic acid] as the compound, how does the IC50 read?
**A.** 40 nM

**Q.** How did the IC50 turn out when Cc1c(-c2c([C@H](OC(C)(C)C)C(=O)O)n(C)c(=O)c3cc(-c4cccn4C)ccc23)cc(F)c2c1CCCO2 (atropisomer, axis not shown; (M)) [Example 202, (S)(M)-[(1,1-dimethylethyl)oxy][4-(8-fluoro-5-methyl-3,4-dihydro-2H-chromen-6-yl)-2-methyl-7-(1-methyl-1H-pyrrol-2-yl)-1-oxo-1,2-dihydro-3-isoquinolinyl]ethanoic acid] was run?
**A.** 20 nM

**Q.** With Cc1occc1-c1ccc2c(-c3cc(F)c4c(c3C)CCCO4)c([C@H](OC(C)(C)C)C(=O)O)n(C)c(=O)c2c1 (atropisomer, axis not shown; (M)) [Example 203, (2S)(M)-[(1,1-dimethylethyl)oxy][4-(8-fluoro-5-methyl-3,4-dihydro-2H-chromen-6-yl)-2-methyl-7-(2-methyl-3-furanyl)-1-oxo-1,2-dihydro-3-isoquinolinyl]ethanoic acid] as the compound, how does the IC50 read?
**A.** 30 nM

**Q.** With Cc1c(-c2c([C@H](OC(C)(C)C)C(=O)O)n(C)c(=O)c3cc(-c4ccccc4)ccc23)cc(F)c2c1CCCO2 (atropisomer, axis not shown; (M)) [Example 204, (2S)(M)-[(1,1-dimethylethyl)oxy][4-(8-fluoro-5-methyl-3,4-dihydro-2H-chromen-6-yl)-2-methyl-1-oxo-7-phenyl-1,2-dihydro-3-isoquinolinyl]ethanoic acid] as the compound, how does the IC50 read?
**A.** 30 nM

**Q.** Cc1c(-c2c([C@H](OC(C)(C)C)C(=O)O)n(C)c(=O)c3cc(-c4ccncc4)ccc23)cc(F)c2c1CCCO2 (atropisomer, axis not shown; (M)) [Example 205, (2S)(M)-[(1,1-dimethylethyl)oxy][4-(8-fluoro-5-methyl-3,4-dihydro-2H-chromen-6-yl)-2-methyl-1-oxo-7-(4-pyridinyl)-1,2-dihydro-3-isoquinolinyl]ethanoic acid] was tested. Which IC50 did it give?
**A.** 160 nM

**Q.** For Cc1c(-c2c([C@H](OC(C)(C)C)C(=O)O)n(C)c(=O)c3cc(-c4cccnc4)ccc23)cc(F)c2c1CCCO2 (atropisomer, axis not shown; (M)) [Example 206, (2S)(M)-[(1,1-dimethylethyl)oxy][4-(8-fluoro-5-methyl-3,4-dihydro-2H-chromen-6-yl)-2-methyl-1-oxo-7-(3-pyridinyl)-1,2-dihydro-3-isoquinolinyl]ethanoic acid], which IC50 is on record?
**A.** 160 nM

**Q.** Cc1noc(C)c1-c1ccc2c(-c3cc(F)c4c(c3C)CCCO4)c([C@H](OC(C)(C)C)C(=O)O)n(C)c(=O)c2c1 (atropisomer, axis not shown; (M)) [Example 207, (2S)(M)-[(1,1-dimethylethyl)oxy][7-(3,5-dimethyl-4-isoxazolyl)-4-(8-fluoro-5-methyl-3,4-dihydro-2H-chromen-6-yl)-2-methyl-1-oxo-1,2-dihydro-3-isoquinolinyl]ethanoic acid] was tested. Which IC50 did it give?
**A.** 80 nM
